This note sets out measurements from patent US9096494B2, “Arachidonic acid analogs and methods for analgesic treatment using same” (priority 2009, dated 2015).

Assay [1] is described as follows: Analgesic potency comparison with natural EETs and AM404. The note with it: in vivo. An excerpt:
Chemically, it is close structural analog of a set of lipid mediators derived from arachidonic acid that the body uses to control pain.

The nature of assay [2]: Intravenous analgesia: onset and duration of effect.
In assay [3] the test system is mice. In words: Tail-flick assay in mouse. Format: in vivo. As to the method:
The tail-flick assay is based on the time measured to reflex withdrawal of the tail in response to a radiant heat source. The maximum exposure time to the radiant heat source is set at 10 seconds. Prior to treatment, a baseline (BL) time measured to tail-flick withdrawal is determined after two exposures to the radiant source separated by a 30 min period. Control mice are intravenously treated with vehicle and test mice are intravenously treated with analgesic test compound. Data of tail-flick withdrawal of treated mice (TM) are calculated as maximum possible effect (MPE), where MPE=(TM−BL)/(10−BL). Tail-flick withdrawal is measured at 5 min, 15 min, 30 mm, and 1 hr. A total of 3-5 mice are used for each time point tested.

Assay [4] concerns mice. As to the kind of experiment: Writhing assay in mouse (bolus and continuous infusion). Format: in vivo. Background: Writhing tests count abdominal constrictions after an irritant is injected.

For `CCCCCC1OC1C/C=C\C/C=C\C/C=C\CCCC(=O)O` (stereo not shown) [14,15-EET, 14,15-EET (epoxyeicosatrienoic acid), reference compound], the “analgesic potency relative to natural EETs” value in assay [1] is recorded as “most potent analgesic of the natural EETs”.
Turning to `CN1CC[C@]23c4c5ccc(O)c4O[C@H]2[C@@H](O)C=C[C@H]3[C@H]1C5` [Morphine, morphine, reference compound], the “time to peak effect” value in assay [2] (animal tests) lay within 15 to 40 min. In addition, the “onset of analgesia after intravenous bolus injection or infusion” value in assay [2] (from the start of injection) is 20 min. Moreover, the “duration of analgesic effect from bolus injection” value in assay [2] (intravenous bolus) was in the range of 35 to 40 min. For the same molecule, the “time to maximal (full) analgesic response, tail-flick” value in assay [3] (10 mg/kg intravenous bolus) worked out at 15 min. Besides, in assay [3] (intravenous), the “dose needed in tail-flick assay relative to writhing assay for a moderate level of efficacy” value was “roughly 100 ×”. Further, in assay [4] (mouse, in vivo), the “continuous infusion dose producing roughly the same level of analgesia (roughly 50% MPE), writhing assay” value came to 1 mg/kg/h and the “time over which analgesic levels are sustained by continuous infusion” value worked out at 24 h. Also, the “dose achieving 100% MPE, writhing assay” value in assay [4] (mouse, in vivo, iv) is on record as “approximately 0.5 mg/kg”.
In the case of `CC(=O)Nc1ccc(O)cc1` [acetaminophen, reference compound], the “dose dependence of the level of analgesia” value in assay [4] (mouse writhing assay) is “not dose dependent”.
